Source: US9896441B2 (Lycera Corporation, priority 2014, dated 2018)

Key:
RORγ-LBD = target: T1, RORγ-LBD (Homo sapiens, UniProt P51449); assay: RORγ-Ligand Binding Domain (LBD) TR-FRET Assay; assay type: biochemical; details: for TR-FRET Assay Max Response: maximum response;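 on TR-FRET Assay Max Response: 665/615 nm signal ratio set to 100 without ursolic acid or test compound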
T1 construct: made in house; host or cells: SF9 cells (baculovirus); used as diluted lysate
T1 sequence (P51449 269-508 limits assumed): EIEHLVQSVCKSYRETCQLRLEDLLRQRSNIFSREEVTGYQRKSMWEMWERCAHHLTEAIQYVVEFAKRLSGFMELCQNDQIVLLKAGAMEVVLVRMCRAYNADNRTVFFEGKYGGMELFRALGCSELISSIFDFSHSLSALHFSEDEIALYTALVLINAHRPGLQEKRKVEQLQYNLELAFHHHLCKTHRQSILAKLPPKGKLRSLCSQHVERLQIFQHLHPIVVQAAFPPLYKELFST
How it was run: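 His-tagged RORγ-LBD from SF9 baculovirus lysate, ~3 nM final, in 50 mM Tris pH 7.0, 50 mM KCl, 1 mM EDTA, 0.1 mM DTT, 0.01% BSA. Biotinylated SRC1 LXXLL peptide at 200 nM final with 2 μM ursolic acid; TR-FRET read-out, 1% DMSO final.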

Gal4-RORγ-LBD = target: T2, Gal4-RORγ-LBD (Homo sapiens, UniProt P51449); assay: Gal4-RORγ Luciferase Reporter Assay in HEK-293T Cells; assay type: cell-based; details: HEK-293 cells, luciferase reporter; for Gal4-RORγ Assay Max Response: maximum response
T2 construct: expressed in transfected cells
T2 sequence (P51449 269-508 limits assumed): T1 sequence (P51449 269-508 limits assumed)
How it was run: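 HEK-293 cells were co-transfected with Gal4-RORγ-LBD and a Gal4-luciferase reporter, then exposed overnight at 37 °C to compounds with […] ursolic acid present (0.2% DMSO). Luminescence was read with One-Glo after 10 min at RT, untreated signal was set as 100, and Max Response was taken as the upper plateau of a 4-parameter logistic fit.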

EC50 (RORγ-LBD; RORγ-LBD TR-FRET assay) [nM]	EC50 (Gal4-RORγ-LBD; in presence of ursolic acid) [nM]	EC50 (RORγ-LBD; RORγ-LBD TR-FRET) [nM]	EC50 (Gal4-RORγ-LBD; with ursolic acid) [nM]	Compound	TR-FRET Assay Max Response (RORγ-LBD; RORγ-LBD TR-FRET assay)	Gal4-RORγ Assay Max Response (Gal4-RORγ-LBD; in presence of ursolic acid)
–	–	< 500	500 to 5000	O=C(O)CC[C@H]1CN(S(=O)(=O)c2cc(C(F)(F)F)cnc2OCCO)c2cc(/C=C3/CCCOC3)ccc2O1 [Example 95Y, (S,Z)-3-(6-((dihydro-2H-pyran-3(4H)-ylidene)methyl)-4-((2-(2-hydroxyethoxy)-5-(trifluoromethyl)pyridin-3-yl)sulfonyl)-3,4-dihydro-2H-benzo[b][1,4]oxazin-2-yl)propanoic acid]	–	–
< 500	500 to 5000	–	–	C/C(=C\c1ccc2c(c1)N(S(=O)(=O)c1cccc(C(F)(F)F)c1)C[C@H](CCC(=O)N1CCC[C@H]1C(=O)O)O2)c1c(F)cccc1Cl [Example 129J, (3-((S)-6-((E)-2-(2-chloro-6-fluorophenyl)prop-1-en-1-yl)-4-((3-(trifluoromethyl)phenyl)sulfonyl)-3,4-dihydro-2H-benzo[b][1,4]oxazin-2-yl)propanoyl)-L-proline]	**** (a value greater than 200)	*** (a value in the range of greater than 150 to 200)
< 500	< 500	–	–	C/C(=C\c1ccc2c(c1)N(S(=O)(=O)c1cccc(C(F)(F)F)c1)C[C@H](CCC(=O)N(C)CC(=O)O)O2)c1c(F)cccc1Cl [Example 129F, (S,E)-N-(3-(6-(2-(2-chloro-6-fluorophenyl)-prop-1-en-1-yl)-4-((3-(trifluoromethyl)phenyl)sulfonyl)-3,4-dihydro-2H-benzo[b][1,4]oxazin-2-yl)propanoyl)-N-methylglycine]	*** (a value in the range of greater than 150 to 200)	*** (a value in the range of greater than 150 to 200)
–	–	< 500	500 to 5000	CC1CCCC(=Cc2ccc3c(c2)N(S(=O)(=O)c2cc(C(F)(F)F)cnc2OCCO)C[C@H](CCC(=O)O)O3)C1 (stereo partly drawn) [Example 95U, 3-((2S)-4-((2-(2-hydroxyethoxy)-5-(trifluoromethyl)pyridin-3-yl)sulfonyl)-6-((3-methylcyclohexylidene)methyl)-3,4-dihydro-2H-benzo[b][1,4]oxazin-2-yl)propanoic acid]	–	–
–	–	< 500	500 to 5000	CCOc1ncc(C(F)(F)F)cc1S(=O)(=O)N1C[C@H](CCC(=O)OC)Oc2ccc(/C=C/c3c(Cl)cccc3C(F)(F)F)cc21 [Example 89DN, methyl (S,E)-3-(6-(2-chloro-6-(trifluoromethyl)styryl)-4-((2-ethoxy-5-(trifluoromethyl)-pyridin-3-yl)sulfonyl)-3,4-dihydro-2H-benzo[b][1,4]-oxazin-2-yl)propanoate]	–	–
–	–	< 500	< 500	CCOc1ncc(C(F)(F)F)cc1S(=O)(=O)N1C[C@H](CCC(=O)O)Oc2ccc(/C=C/c3c(Cl)cccc3C(F)F)cc21 [Example 89EJ, (S,E)-3-(6-(2-chloro-6-(difluoromethyl)styryl)-4-((2-ethoxy-5-(trifluoromethyl)-pyridin-3-yl)sulfonyl)-3,4-dihydro-2H-benzo[b][1,4]-oxazin-2-yl)propanoic acid]	–	–
< 500	< 500	–	–	COc1cc(S(=O)(=O)N2C[C@H](CC(C)(C)C(=O)O)Cc3ccc(/C=C/c4c(F)cccc4Cl)cc32)ccc1F [Example 154A]	** (a value in the range of greater than 90 to 150)	* (a value in the range of 30 to 90)
–	–	< 500	> 10000	O=C(O)CC[C@H]1CN(S(=O)(=O)c2cccc(C(F)(F)F)c2)c2cc(/C=C/c3ccc(Cl)cc3F)ccc2O1 [Example 89BH, (S,E)-3-(6-(4-chloro-2-fluorostyryl)-4-((3-(trifluoromethyl)phenyl)sulfonyl)-3,4-dihydro-2H-benzo[b][1,4]oxazin-2-yl)propanoic acid]	–	–
–	–	< 500	< 500	CC(C)n1cc(S(=O)(=O)N2C[C@H](CCC(=O)O)Oc3ccc(/C=C/c4c(Cl)cccc4C(F)(F)F)cc32)c(OCCO)n1 [Example 89ED, (S,E)-3-(6-(2-chloro-6-(trifluoromethyl)styryl)-4-((3-(2-hydroxyethoxy)-1-isopropyl-1H-pyrazol-4-yl)sulfonyl)-3,4-dihydro-2H-benzo[b][1,4]oxazin-2-yl)propanoic acid]	–	–
–	–	< 500	< 500	CCOc1nn(CC)cc1S(=O)(=O)N1C[C@H](CCC(=O)O)Oc2ccc(/C=C/c3c(Cl)cccc3C(F)(F)F)cc21 [Example 89DO, (S,E)-3-(6-(2-chloro-6-(trifluoromethyl)styryl)-4-((3-ethoxy-1-ethyl-1H-pyrazol-4-yl)sulfonyl)-3,4-dihydro-2H-benzo[b][1,4]oxazin-2-yl)propanoic acid]	–	–

Continued, compound first:

Compound	EC50 (RORγ-LBD; RORγ-LBD TR-FRET assay) [nM]	EC50 (Gal4-RORγ-LBD; in presence of ursolic acid) [nM]	EC50 (RORγ-LBD; RORγ-LBD TR-FRET) [nM]	EC50 (Gal4-RORγ-LBD; with ursolic acid) [nM]	TR-FRET Assay Max Response (RORγ-LBD; RORγ-LBD TR-FRET assay)	Gal4-RORγ Assay Max Response (Gal4-RORγ-LBD; in presence of ursolic acid)
C/C(=C\c1ccc2c(c1)N(S(=O)(=O)c1cccc(C(F)(F)F)c1)C[C@H]([C@@H](C)NS(C)(=O)=O)O2)c1c(F)cccc1Cl [Example 105, N—((R)-1-((R)-6-((E)-2-(2-Chloro-6-fluorophenyl)prop-1-en-1-yl)-4-((3-(trifluoromethyl)phenyl)sulfonyl)-3,4-dihydro-2H-benzo[b][1,4]oxazin-2-yl)ethyl)methanesulfonamide]	< 500	< 500	–	–	** (a value in the range of greater than 90 to 150)	** (a value in the range of greater than 90 to 150)
COC(=O)CCC1CC(S(=O)(=O)c2ccc(F)c(OC)c2)c2cc(OCc3c(F)cccc3Cl)ccc2O1 (stereo not shown) [Example 178, Methyl 3-(6-((2-chloro-6-fluorobenzyl)oxy)-4-((4-fluoro-3-methoxyphenyl)sulfonyl)chroman-2-yl)propanoate]	< 500	500 to 5000	–	–	** (a value in the range of greater than 90 to 150)	** (a value in the range of greater than 90 to 150)
C/C(=C\c1ccc2c(c1)N(S(=O)(=O)c1cccc(C(F)(F)F)c1)C[C@@H](O)C2)c1c(F)cccc1Cl [Example 161, (S,E)-7-(2-(2-Chloro-6-fluorophenyl)prop-1-en-1-yl)-1-((3-(trifluoromethyl)phenyl)sulfonyl)-1,2,3,4-tetrahydroquinolin-3-ol]	< 500	< 500	–	–	** (a value in the range of greater than 90 to 150)	** (a value in the range of greater than 90 to 150)
C/C(=C\c1ccc2c(c1)N(S(=O)(=O)c1cccc(C(F)(F)F)c1)C[C@H](CCN1CCCC1)O2)c1c(F)cccc1Cl [Example 118, (S,E)-6-(2-(2-Chloro-6-fluorophenyl)prop-1-en-1-yl)-2-(2-(pyrrolidin-1-yl)ethyl)-4-((3-(trifluoromethyl)phenyl)sulfonyl)-3,4-dihydro-2H-benzo[b][1,4]oxazine]	< 500	500 to 5000	–	–	–	–
N[C@@H]1Cc2ccc(OCc3c(F)cccc3Cl)cc2N(S(=O)(=O)c2cccc(C(F)(F)F)c2)C1 [Example 159, (R)-7-((2-Chloro-6-fluorobenzyl)oxy)-1-((3-(trifluoromethyl)phenyl)sulfonyl)-1,2,3,4-tetrahydroquinolin-3-amine]	< 500	500 to 5000	–	–	–	–
COC(=O)CC[C@H]1CN(S(=O)(=O)c2cccc(OC(F)(F)F)c2)c2cc(/C=C(\C)c3c(F)cccc3Cl)ccc2O1 [Example 86T, (S,E)-methyl 3-(6-(2-(2-chloro-6-fluorophenyl)prop-1-en-1-yl)-4-((3-(trifluoromethoxy)phenyl)-sulfonyl)-3,4-dihydro-2H-benzo[b][1,4]oxazin-2-yl)propanoate]	–	–	< 500	500 to 5000	–	–
COc1cc(S(=O)(=O)N2c3cc(OCc4c(F)cccc4Cl)ccc3C=C(CNC(C)=O)[C@H]2C)ccc1F [Example 140, (R)—N-((7-((2-Chloro-6-fluorobenzyl)oxy)-1-((4-fluoro-3-methoxyphenyl)sulfonyl)-2-methyl-1,2-dihydroquinolin-3-yl)methyl)acetamide]	< 500	< 500	–	–	–	–
COc1cc(S(=O)(=O)N2CCCc3ccc(OCc4c(F)cccc4C(F)(F)F)cc32)ccc1F [Example 25R, 1-((4-fluoro-3-methoxyphenyl)sulfonyl)-7-((2-fluoro-6-(trifluoromethyl)benzyl)oxy)-1,2,3,4-tetrahydroquinoline]	–	–	< 500	< 500	–	–
C/C(=C\c1ccc2c(c1)N(S(=O)(=O)c1cccc(C(F)(F)F)c1)C[C@H]([C@H](C)O)O2)c1c(F)cccc1Cl [Example 96, (S)-1-((R)-6-((E)-2-(2-Chloro-6-fluorophenyl)prop-1-en-1-yl)-4-((3-(trifluoromethyl)phenyl)sulfonyl)-3,4-dihydro-2H-benzo[b][1,4]oxazin-2-yl)ethan-1-ol]	–	–	< 500	< 500	–	–
C/C(=C\c1cc2c(cc1Cl)O[C@@H](CCC(=O)O)CN2S(=O)(=O)c1cccc(C(F)(F)F)c1)c1c(F)cccc1Cl [Example 46, (S,E)-3-(7-Chloro-6-(2-(2-chloro-6-fluorophenyl)prop-1-en-1-yl)-4-((3-(trifluoromethyl)phenyl)sulfonyl)-3,4-dihydro-2H-benzo[b][1,4]oxazin-2-yl)propanoic acid]	–	–	< 500	< 500	–	–
